Results published in the Kinase Knowledgebase extract (Sharma et al. 2016).

Biological target: EGFR (mouse) (UniProt P00533)
Settings: swiss 3t3 membrane

IC50 [µM]	SMILES
> 30	COc1ccc(OC)c2nc(Cl)c(-c3ccccc3)cc12
30	N#C/C(=C\c1c[nH]c2ccccc12)C(=O)c1ccc(O)c(O)c1

SMILES	IC50 [µM]
N#CC(C#N)=C(N)/C(C#N)=C/c1c[nH]c2ccccc12	> 300
